Test results published in ChEMBL document CHEMBL1145390, “Synthesis and preliminary biological characterization of new semisynthetic derivatives of ramoplanin” (J Med Chem, 2007).
In brackets after ≈: the same amount, converted by molar mass. Activity calls are given as the source filed them. No cut-off for these calls is given here.

What was measured:
Streptococcus pyogenes = experiment: Antibacterial activity against Streptococcus pyogenes C203 after 24 hrs by broth microdilution method; type: functional; details: C203, 24 h, read-out: MIC
Enterococcus faecalis [1] = experiment: Antibacterial activity against Enterococcus faecalis after 24 hrs by broth microdilution method; type: functional; details: read-out: MIC
Staphylococcus aureus [2] = experiment: Antibacterial activity against vancomycin-intermediate resistant Staphylococcus aureus clinical isolate after 24 hrs by broth microdilution method; type: functional
Staphylococcus aureus [3] = experiment: Antibacterial activity against vancomycin-intermediate resistant Staphylococcus aureus clinical isolate in presence of 30% bovine serum after 24 hrs by broth microdilution method; type: functional
Enterococcus faecium [4] = experiment: Antibacterial activity against vancomycin A-resistant Enterococcus faecium clinical isolate in presence of 30% bovine serum after 24 hrs by broth microdilution method; type: functional
Candida albicans = experiment: Antifungal activity against Candida albicans SKF-2270 after 24 hrs by broth microdilution method; type: functional; details: read-out: MIC
[5] = Toxicity assessed as hemolysis in erythrocytes at 600 mg/L; type: cell-based, Erythrocyte; details: human, read-out: Activity
Enterococcus faecalis [6] = experiment: Antibacterial activity against vancomycin-resistant Enterococcus faecalis in presence of 30% bovine serum after 24 hrs by broth microdilution method; type: functional
Escherichia coli = experiment: Antibacterial activity against Escherichia coli SKF-12140 after 24 hrs by broth microdilution method; type: functional; details: read-out: MIC
Staphylococcus aureus [7] = experiment: Antibacterial activity against Staphylococcus aureus Smith in presence of 30% bovine serum after 24 hrs by broth microdilution method; type: functional
Staphylococcus aureus [8] = experiment: Antibacterial activity against methicillin-resistant Staphylococcus aureus clinical isolate after 24 hrs by broth microdilution method; type: functional; details: read-out: MIC
Enterococcus faecium [9] = experiment: Antibacterial activity against vancomycin A-resistant Enterococcus faecium clinical isolate after 24 hrs by broth microdilution method; type: functional; details: read-out: MIC
[10] = Toxicity assessed as hemolysis in erythrocytes at 1200 mg/L; type: cell-based, Erythrocyte; details: human, read-out: Activity
[11] = Toxicity assessed as hemolysis in erythrocytes at 300 mg/L; type: cell-based, Erythrocyte; details: human, read-out: Activity
Enterococcus faecalis [12] = experiment: Antibacterial activity against vancomycin A-resistant Enterococcus faecalis after 24 hrs by broth microdilution method; type: functional; details: read-out: MIC
Staphylococcus aureus [13] = experiment: Antibacterial activity against methicillin-resistant and vancomycin-intermediate resistant Staphylococcus aureus clinical isolate after 24 hrs by broth microdilution method; type: functional; details: read-out: MIC
Enterococcus faecium [14] = experiment: Antibacterial activity against Enterococcus faecium after 24 hrs by broth microdilution method; type: functional; details: for MIC: read-out: MIC
Staphylococcus aureus [15] = experiment: Antibacterial activity against Staphylococcus aureus Smith after 24 hrs by broth microdilution method; type: functional; details: read-out: MIC
[16] = Toxicity assessed as hemolysis in erythrocytes at 90 mg/L; type: cell-based, Erythrocyte; details: human, erythrocytes; read-out: Activity
[17] = Toxicity assessed as hemolysis in erythrocytes at 180 mg/L; type: cell-based, Erythrocyte; details: human, erythrocytes; read-out: Activity

Row | Compound | MIC (Streptococcus pyogenes) [µg/mL] | MIC (Enterococcus faecalis [1]) [µg/mL] | MIC (Staphylococcus aureus [2]) [µg/mL] | MIC (Staphylococcus aureus [3]) [µg/mL] | MIC (Enterococcus faecium [4]) [µg/mL] | MIC (Candida albicans) [µg/mL] | hemolysis at 600 mg/L [5] [%] | MIC (Enterococcus faecalis [6]) [µg/mL] | MIC (Escherichia coli) [µg/mL] | MIC (Staphylococcus aureus [7]) [µg/mL] | MIC (Staphylococcus aureus [8]) [µg/mL] | MIC (Enterococcus faecium [9]) [µg/mL] | hemolysis at 1200 mg/L [10] [%] | hemolysis at 300 mg/L [11] [%] | MIC (Enterococcus faecalis [12]) [µg/mL] | MIC (Staphylococcus aureus [13]) [µg/mL] | MIC (Enterococcus faecium [14]) [µg/mL] | MIC (Staphylococcus aureus [15]) [µg/mL] | other results
1 | Cc1cccc(CC(=O)N[C@@H](CC(N)=O)C(=O)NC[C@@H]2C(=O)N[C@H](c3ccc(O)cc3)C(=O)N[C@H](CCCN)C(=O)N[C@H](C(C)C)C(=O)N[C@@H](c3ccc(O)cc3)C(=O)N[C@H](c3ccc(O)cc3)C(=O)N[C@@H]([C@@H](C)O)C(=O)N[C@@H](Cc3ccccc3)C(=O)N[C@H](CCCN)C(=O)N[C@@H](c3ccc(O[C@H]4O[C@H](CO)[C@@H](O)[C@H](O)[C@@H]4O[C@H]4O[C@H](CO)[C@@H](O)[C@H](O)[C@@H]4O)cc3)C(=O)N[C@H]([C@@H](C)O)C(=O)N[C@@H](c3ccc(O)cc3)C(=O)NCC(=O)N[C@@H](CC(C)C)C(=O)N[C@H](C)C(=O)N[C@@H](c3ccc(O)c(Cl)c3)C(=O)O[C@@H]2C(N)=O)c1 | ≤ 0.125 | 0.25 (≈ 0.0976 µM) | 1 (≈ 0.39 µM) | 4 | 4 | > 128 | 0 | 1 | > 128 | 1 | 0.25 (≈ 0.0976 µM) | 0.5 (≈ 0.195 µM) | 5 | 0 | ≤ 0.125 | 2 (≈ 0.781 µM) | 0.5 (≈ 0.195 µM) | ≤ 0.125 | 
2 | CC(C)C[C@@H]1NC(=O)CNC(=O)[C@H](c2ccc(O)cc2)NC(=O)[C@@H]([C@@H](C)O)NC(=O)[C@H](c2ccc(O[C@H]3O[C@H](CO)[C@@H](O)[C@H](O)[C@@H]3O[C@H]3O[C@H](CO)[C@@H](O)[C@H](O)[C@@H]3O)cc2)NC(=O)[C@@H](CCCN)NC(=O)[C@H](Cc2ccccc2)NC(=O)[C@H]([C@@H](C)O)NC(=O)[C@@H](c2ccc(O)cc2)NC(=O)[C@H](c2ccc(O)cc2)NC(=O)[C@@H](C(C)C)NC(=O)[C@@H](CCCN)NC(=O)[C@@H](c2ccc(O)cc2)NC(=O)[C@@H](CNC(=O)[C@H](CC(N)=O)NC(=O)Cc2ccccc2[N+](=O)[O-])[C@@H](C(N)=O)OC(=O)[C@H](c2ccc(O)c(Cl)c2)NC(=O)[C@@H](C)NC1=O | ≤ 0.125 | 2 (≈ 0.771 µM) | 2 (≈ 0.771 µM) | 4 | 8 | > 128 | 0 | 2 | > 128 | 1 | 1 (≈ 0.386 µM) | 2 (≈ 0.771 µM) | 0 | 1 | 1 (≈ 0.386 µM) | 4 (≈ 1.54 µM) | 4 (≈ 1.54 µM) | 0.5 (≈ 0.193 µM) | 
3 | Cc1ccccc1C(C)C(=O)N[C@@H](CC(N)=O)C(=O)NC[C@@H]1C(=O)N[C@H](c2ccc(O)cc2)C(=O)N[C@H](CCCN)C(=O)N[C@H](C(C)C)C(=O)N[C@@H](c2ccc(O)cc2)C(=O)N[C@H](c2ccc(O)cc2)C(=O)N[C@@H]([C@@H](C)O)C(=O)N[C@@H](Cc2ccccc2)C(=O)N[C@H](CCCN)C(=O)N[C@@H](c2ccc(O[C@H]3O[C@H](CO)[C@@H](O)[C@H](O)[C@@H]3O[C@H]3O[C@H](CO)[C@@H](O)[C@H](O)[C@@H]3O)cc2)C(=O)N[C@H]([C@@H](C)O)C(=O)N[C@@H](c2ccc(O)cc2)C(=O)NCC(=O)N[C@@H](CC(C)C)C(=O)N[C@H](C)C(=O)N[C@@H](c2ccc(O)c(Cl)c2)C(=O)O[C@@H]1C(N)=O (stereo partly specified) | ≤ 0.125 | 0.5 (≈ 0.194 µM) | 2 (≈ 0.776 µM) | 4 | 8 | > 128 | 4 | 2 | > 128 | 1 | 0.5 (≈ 0.194 µM) | 1 (≈ 0.388 µM) | 45 | 2 | 1 (≈ 0.388 µM) | 4 (≈ 1.55 µM) |  | 0.25 (≈ 0.097 µM) | Activity (Enterococcus faecium [14]): inactive
4 | CC(C)C[C@@H]1NC(=O)CNC(=O)[C@H](c2ccc(O)cc2)NC(=O)[C@@H]([C@@H](C)O)NC(=O)[C@H](c2ccc(O[C@H]3O[C@H](CO)[C@@H](O)[C@H](O)[C@@H]3O[C@H]3O[C@H](CO)[C@@H](O)[C@H](O)[C@@H]3O)cc2)NC(=O)[C@@H](CCCN)NC(=O)[C@H](Cc2ccccc2)NC(=O)[C@H]([C@@H](C)O)NC(=O)[C@@H](c2ccc(O)cc2)NC(=O)[C@H](c2ccc(O)cc2)NC(=O)[C@@H](C(C)C)NC(=O)[C@@H](CCCN)NC(=O)[C@@H](c2ccc(O)cc2)NC(=O)[C@@H](CNC(=O)[C@H](CC(N)=O)NC(=O)Cc2ccccc2C(F)(F)F)[C@@H](C(N)=O)OC(=O)[C@H](c2ccc(O)c(Cl)c2)NC(=O)[C@@H](C)NC1=O | ≤ 0.125 | ≤ 0.125 | 1 (≈ 0.382 µM) | 4 | 2 | > 128 | 5 | 0.5 | > 128 | 1 | ≤ 0.125 | 0.25 (≈ 0.0956 µM) | 51 | 3 |  | 2 (≈ 0.764 µM) | 0.5 (≈ 0.191 µM) | ≤ 0.125 | 
5 | Cc1ccc(CC(=O)N[C@@H](CC(N)=O)C(=O)NC[C@@H]2C(=O)N[C@H](c3ccc(O)cc3)C(=O)N[C@H](CCCN)C(=O)N[C@H](C(C)C)C(=O)N[C@@H](c3ccc(O)cc3)C(=O)N[C@H](c3ccc(O)cc3)C(=O)N[C@@H]([C@@H](C)O)C(=O)N[C@@H](Cc3ccccc3)C(=O)N[C@H](CCCN)C(=O)N[C@@H](c3ccc(O[C@H]4O[C@H](CO)[C@@H](O)[C@H](O)[C@@H]4O[C@H]4O[C@H](CO)[C@@H](O)[C@H](O)[C@@H]4O)cc3)C(=O)N[C@H]([C@@H](C)O)C(=O)N[C@@H](c3ccc(O)cc3)C(=O)NCC(=O)N[C@@H](CC(C)C)C(=O)N[C@H](C)C(=O)N[C@@H](c3ccc(O)c(Cl)c3)C(=O)O[C@@H]2C(N)=O)cc1.Cl | ≤ 0.125 | 0.25 | 2 | 4 | 2 | > 128 | 11 | 2 | > 128 | 0.5 | ≤ 0.125 | 0.5 | 9 | 2 | ≤ 0.125 | 4 | 0.5 | ≤ 0.125 | hemolysis at 90 mg/L [16]: 0%; hemolysis at 180 mg/L [17]: 0%
